Test results taken from US10166197B2, “Sugar ester nanoparticle stabilizers” (St. John's University, priority 2015, dated 2019).

Assay: Dispersion test, USP apparatus II (paddle method), 0.45 μm filtration and HPLC
Type: physicochemical
Details: 0.45 μm pore size filter
Description: Dispersion tests were then run on each of the dosage forms using USP apparatus II (the paddle method). Dried samples corresponding to 20 mg of the lyophilized powder were weighed and mixed with 2% SLS and placed into 250 mL of dissolution media with a holding temperature at 37±0.5° C. The rotation speed of the paddle was set to 50 rpm. The dispersion test was performed in two steps: stimulated gastric fluid (pH 1.2) for up to 120 minutes, and changing the pH to pH 6.8 after that by adding 1N NaOH. This is to mimic the gastrointestinal pH conditions. Aliquots of the suspension were taken after 1, 3, 5, 10, 15, 30, 60, 120, 150, and 180 minutes. The aliquots were then filtered through a hydrophilic PTFE membrane filter with 0.45 μm pore size, diluted appropriately with an organic solvent to dissolve drug particles and analyzed for drug content by HPLC.
Dispersion tests were also performed on capsules and tablets of the lyophilized powder.

drug dispersion (result in words): did not demonstrate any drug dispersion
SMILES: CC(C)(Sc1cc(C(C)(C)C)c(O)c(C(C)(C)C)c1)Sc1cc(C(C)(C)C)c(O)c(C(C)(C)C)c1 [neat probucol powder, probucol]
